Experimental data taken from patent publication US10328077B2 (CELGENE CORPORATION, priority 2016, dated 2019).
Read-outs that look alike come from different tables or passages of the source.

Experiments:
[1] = tested on: CD11b expression in THP-1 (AML) cells; test: LSD-1 CD11b cellular assay (flow cytometry); details: Homo sapiens, THP-1, 96 h, read-out: THP-1 IC50
[2] = tested on: Kasumi-1 AML cancer cell line; test: Kasumi-1 AML cell line proliferation assay (Cell-MTS); type: cell-based; details: Homo sapiens, 168 hours
Excerpt: Colorimetric cellular assay to assess the ability of LSD-1 small molecule inhibitors to effect the proliferation of the established AML cancer cell line Kasumi-1
This Cell-MTS assay is a 7-day plate based colorimetric assay which quantifies the amount of newly generated NADH in the presence and absence of test compound. These NADH levels are used as a proxy for the quantification of cancer cell proliferation.
The established cancer cell line Kasumi-1 with a verified p53 mutation were purchased from American Type Culture Collection (ATCC) and routinely passaged according to ATCC published protocols. For routine assay these cells were seeded at a density of 20,000 cells per 96-well. […] At the end of this compound incubation period, 80 μl of media is removed and 20 μL of CellTiter 96® AQueous Non-Radioactive Cell Proliferation Assay solution (Promega) is added. The cells are incubated until the OD490 is >0.6. IC50 values are calculated using the IDBS XLfit software package and include background subtracted OD490 values and normalization to DMSO controls.

human LSD-1 = human LSD-1 (Homo sapiens (Human), UniProt O60341); test: In vitro enzyme inhibition assay LSD-1 (TR-FRET); type: biochemical; details: TR-FRET, H3K4me1-biotin labeled peptide
Excerpt: This assay determines the ability of a test compound to inhibit LSD-1 demethylase activity.
The enzymatic assay of LSD-1 activity is based on Time Resolved-Fluorescence Resonance Energy Transfer (TR-FRET) detection.

[3] = tested on: LXFS 573 SCLC patient-derived xenograft
[4] = Etoposide 24 mg/kg/day SC days 1-3 + vehicle

Row | SMILES | IC50 [1] | IC50 [2] | IC50 (human LSD-1) | further results
1 | COc1ccc(-c2c(-c3ccc(C#N)cc3)nc(N3CCC(N)CC3)n(C)c2=O)cn1 [Example 3, 4-[2-(4-amino-piperidin-1-yl)-5-(6-methoxy-pyridin-3-yl)-1-methyl-6-oxo-1,6-dihydro-pyrimidin-4-yl]-benzonitrile] | < 100 nM | < 100 nM | < 100 nM | 
2 | Cn1cc2cc(-c3c(-c4ccc(C#N)c(F)c4)nc(N4CCCNCC4)n(C)c3=O)ccc2n1 [Example 66, 4-[2-[1,4]diazepan-1-yl-1-methyl-5-(2-methyl-2H-indazol-5-yl)-6-oxo-1,6-dihydro-pyrimidin-4-yl]-2-fluoro-benzonitrile] | < 100 nM | < 100 nM | < 100 nM | 
3 | Cn1c(N2CCC(N)CC2)nc(-c2ccc(C#N)c(F)c2)c(-c2cnn(CC(F)(F)F)c2)c1=O [Example 34, 4-{2-(4-amino-piperidin-1-yl)-1-methyl-6-oxo-5-[1-(2,2,2-trifluoro-ethyl)-1H-pyrazol-4-yl]-1,6-dihydro-pyrimidin-4-yl}-2-fluoro-benzonitrile] | < 100 nM | < 100 nM | < 100 nM | 
4 | Cn1c(N2CCC(N)CC2)nc(-c2ccc(C#N)c(F)c2)c(-c2ccc3[nH]ncc3c2)c1=O [Example 88, 4-[2-(4-aminopiperidin-1-yl)-5-(1H-indazol-5-yl)-1-methyl-6-oxopyrimidin-4-yl]-2-fluorobenzonitrile] | < 100 nM | < 100 nM | < 100 nM | 
5 | COc1cc([C@@H]2c3cc4c(cc3[C@@H](O[C@@H]3O[C@@H]5CO[C@@H](C)O[C@H]5[C@H](O)[C@H]3O)[C@H]3COC(=O)[C@H]23)OCO4)cc(OC)c1O [Etoposide, etoposide, reference compound] |  |  |  | % TGD (NCI-H1417 SCLC xenograft; 24 mg/kg Etoposide SC QD x 3): 92%; T − C (NCI-H1417 SCLC xenograft; 24 mg/kg Etoposide SC QD x 3): 24 days; median TTE (NCI-H1417 SCLC xenograft; 24 mg/kg Etoposide SC QD x 3): 50 days; median TTE (NCI-H1417 SCLC xenograft; etoposide monotherapy 24 mg/kg SC QD×3): 50 days; % TGD [3, 4]: 50%; T − C [3, 4]: 21 days; median TTE [3, 4]: 63 days; median TTE ([3]; etoposide monotherapy 24 mg/kg SC): 63 days
6 | CNC(=O)c1ccc(-c2c(-c3ccc(C#N)c(F)c3)nc(N3CCC(N)CC3)n(C)c2=O)cn1 [Example 50, 5-[2-(4-amino-piperidin-1-yl)-4-(4-cyano-3-fluoro-phenyl)-1-methyl-6-oxo-1,6-dihydro-pyrimidin-5-yl]-pyridine-2-carboxylic acid methylamide] | < 100 nM |  | < 100 nM | 
7 | COCc1ccc(-c2c(-c3ccc(C#N)c(F)c3)nc(N3CCC(N)CC3)n(C)c2=O)cc1 [Example 107, 4-[2-(4-aminopiperidin-1-yl)-5-[4-(methoxymethyl)phenyl]-1-methyl-6-oxopyrimidin-4-yl]-2-fluorobenzonitrile] | < 100 nM |  | < 100 nM | 
8 | CNC1CCN(c2nc(-c3ccc(C#N)c(F)c3)c(-c3ccc4c(cnn4C)c3)c(=O)n2C)CC1 [Example 87, 2-fluoro-4-[1-methyl-2-[4-(methylamino)piperidin-1-yl]-5-(1-methylindazol-5-yl)-6-oxopyrimidin-4-yl] benzonitrile] | < 100 nM |  | < 100 nM | 
9 | Cn1c(N2CCC(N)CC2)nc(-c2ccc(C#N)c(F)c2)c(-c2ccc3c(cnn3C)c2)c1=O [Example 35, 4-[2-(4-amino-piperidin-1-yl)-1-methyl-5-(1-methyl-1H-indazol-5-yl)-6-oxo-1,6-dihydro-pyrimidin-4-yl]-2-fluoro-benzonitrile] | < 100 nM | < 100 nM |  | 
10 | CN(C)C1CCN(c2nc(-c3ccc(C#N)c(F)c3)c(-c3ccc4cn[nH]c4c3)c(=O)n2C)CC1 [Example 84, 4-[2-(4-dimethylamino-piperidin-1-yl)-5-(2H-indazol-6-yl)-1-methyl-6-oxo-1,6-dihydro-pyrimidin-4-yl]-2-fluoro-benzonitrile] | < 100 nM |  | < 100 nM | 
11 | CCOc1ncc(-c2c(-c3ccc(C#N)c(F)c3)nc(N3CCC(N)CC3)n(C)c2=O)cc1F [Example 93, 4-[2-(4-aminopiperidin-1-yl)-5-(6-ethoxy-5-fluoropyridin-3-yl)-1-methyl-6-oxopyrimidin-4-yl]-2-fluorobenzonitrile] | < 100 nM |  | < 100 nM | 
12 | Cc1ccc(-c2c(-c3ccc(C#N)cc3)nc(N3CCC(N)CC3)n(C)c2=O)cn1 [Example 4, 4-[2-(4-amino-piperidin-1-yl)-1-methyl-5-(6-methyl-pyridin-3-yl)-6-oxo-1,6-dihydro-pyrimidin-4-yl]-benzonitrile] | < 100 nM | 100 to 1000 nM | < 100 nM | 
13 | Cn1c(N2CCC(N)CC2)nc(-c2ccc(C#N)c(F)c2)c(-c2ccc(OCCO)cc2)c1=O [Example 96, 4-[2-(4-aminopiperidin-1-yl)-5-[4-(2-hydroxyethoxy)phenyl]-1-methyl-6-oxopyrimidin-4-yl]-2-fluorobenzonitrile] | < 100 nM |  | < 100 nM | 

More lines, main results first:

Row | IC50 [1] | IC50 [2] | IC50 (human LSD-1) | SMILES | further results
14 | < 100 nM | < 100 nM |  | Cn1cc2cc(-c3c(-c4ccc(C#N)cc4)nc(N4CCC(N)CC4)n(C)c3=O)ccc2n1 [Example 24, 4-[2-(4-aminopiperidyl)-1-methyl-5-(2-methyl(2H-indazol-5-yl))-6-oxohydropyrimidin-4-yl]benzenecarbonitrile] | 
15 | < 100 nM | < 100 nM | < 100 nM | Cn1c(N2CCC(N)CC2)nc(-c2ccc(C#N)cc2)c(-c2cnn(CC(F)(F)F)c2)c1=O [Example 36, 4-{2-(4-amino-piperidin-1-yl)-1-methyl-6-oxo-5-[1-(2,2,2-trifluoro-ethyl)-1H-pyrazol-4-yl]-1,6-dihydro-pyrimidin-4-yl}-benzonitrile] | 
16 | < 100 nM | < 100 nM | < 100 nM | COc1ccc(-c2c(-c3ccc(C#N)c(F)c3)nc(N3CCC(N)CC3)n(C)c2=O)cn1 [Example 8, 4-[2-(4-amino-piperidin-1-yl)-5-(6-methoxy-pyridin-3-yl)-1-methyl-6-oxo-1,6-dihydro-pyrimidin-4-yl]-2-fluoro-benzonitrile] | 
17 | < 100 nM | < 100 nM | < 100 nM | COc1ccc(-c2c(-c3ccc(C#N)c(F)c3)nc(N3CCC(N)CC3)n(C)c2=O)cc1 [Example 6, 4-[2-(4-amino-piperidin-1-yl)-5-(4-methoxy-phenyl)-1-methyl-6-oxo-1,6-dihydro-pyrimidin-4-yl]-2-fluoro-benzonitrile] | 
18 | < 100 nM | < 100 nM | < 100 nM | CNC1CCN(c2nc(-c3ccc(C#N)c(F)c3)c(-c3ccc4nn(C)cc4c3)c(=O)n2C)CC1 [Example 65, 2-fluoro-4-[1-methyl-2-(4-methylamino-piperidin-1-yl)-5-(2-methyl-2H-indazol-5-yl)-6-oxo-1,6-dihydro-pyrimidin-4-yl]-benzonitrile] | 
19 | < 100 nM | < 100 nM | < 100 nM | CN(C)C1CCN(c2nc(-c3ccc(C#N)c(F)c3)c(-c3ccc4nn(C)cc4c3)c(=O)n2C)CC1 [Example 71, 4-[2-(4-dimethylamino-piperidin-1-yl)-1-methyl-5-(2-methyl-2H-indazol-5-yl)-6-oxo-1,6-dihydro-pyrimidin-4-yl]-2-fluoro-benzonitrile] | 
20 | < 100 nM | < 100 nM | < 100 nM | Cc1ccc(-c2c(-c3ccc(C#N)c(F)c3)nc(N3CCC(N)CC3)n(C)c2=O)cn1 [Example 9] | 
21 | < 100 nM |  | < 100 nM | Cn1c(N2CCC(N)CC2)nc(-c2ccc(C#N)c(F)c2)c(-c2ccc3occc3c2)c1=O [Example 18, 4-[2-(4-amino-piperidin-1-yl)-5-benzofuran-5-yl-1-methyl-6-oxo-1,6-dihydro-pyrimidin-4-yl]-2-fluoro-benzonitrile] | 
22 | < 100 nM |  | < 100 nM | CN(C)c1ncc(-c2c(-c3ccc(C#N)c(F)c3)nc(N3CCC(N)CC3)n(C)c2=O)cn1 [Example 49, 4-[2-(4-amino-piperidin-1-yl)-2′-dimethylamino-1-methyl-6-oxo-1,6-dihydro-[5,5′]bipyrimidinyl-4-yl]-2-fluoro-benzonitrile] | 
23 | < 100 nM |  | < 100 nM | Cn1c(N2CCC(N)CC2)nc(-c2ccc(C#N)c(F)c2)c(-c2ccc(N3CCOCC3)nc2)c1=O [Example 68, 4-[2-(4-amino-piperidin-1-yl)-1-methyl-5-(6-morpholin-4-yl-pyridin-3-yl)-6-oxo-1,6-dihydro-pyrimidin-4-yl]-2-fluoro-benzonitrile] | 
